This note sets out measurements from patent US7045532B2 (Millennium Pharmaceuticals, Inc., priority 1999, dated 2006).

Like-named read-outs stand apart in the source and are kept apart here.

The assay addresses T1, ACE-2 (Homo sapiens, UniProt Q9BYF1).
T1 construct: a stop codon inserted after the serine immediately preceding the transmembrane domain; made in house; host or cells: CHO K1 cells (transient transfection, purified from conditioned medium)
In words: ACE-2 Competitive Substrate Assay (ACS Assay). The assay is classed as biochemical.

Where [1] appears, read: Ki class, compounds tested in 5% DMSO, 12 compound concentrations, Ki=Kiapp/(1+[S]/Km), read-out: Human ACE-2 Activity.
[2] abbreviates: Table 3, very good ACE-2 inhibiting compounds, species not given, read-out: ACE-2 Activity, Ki.

T1 sequence (Q9BYF1 18-740 limits assumed): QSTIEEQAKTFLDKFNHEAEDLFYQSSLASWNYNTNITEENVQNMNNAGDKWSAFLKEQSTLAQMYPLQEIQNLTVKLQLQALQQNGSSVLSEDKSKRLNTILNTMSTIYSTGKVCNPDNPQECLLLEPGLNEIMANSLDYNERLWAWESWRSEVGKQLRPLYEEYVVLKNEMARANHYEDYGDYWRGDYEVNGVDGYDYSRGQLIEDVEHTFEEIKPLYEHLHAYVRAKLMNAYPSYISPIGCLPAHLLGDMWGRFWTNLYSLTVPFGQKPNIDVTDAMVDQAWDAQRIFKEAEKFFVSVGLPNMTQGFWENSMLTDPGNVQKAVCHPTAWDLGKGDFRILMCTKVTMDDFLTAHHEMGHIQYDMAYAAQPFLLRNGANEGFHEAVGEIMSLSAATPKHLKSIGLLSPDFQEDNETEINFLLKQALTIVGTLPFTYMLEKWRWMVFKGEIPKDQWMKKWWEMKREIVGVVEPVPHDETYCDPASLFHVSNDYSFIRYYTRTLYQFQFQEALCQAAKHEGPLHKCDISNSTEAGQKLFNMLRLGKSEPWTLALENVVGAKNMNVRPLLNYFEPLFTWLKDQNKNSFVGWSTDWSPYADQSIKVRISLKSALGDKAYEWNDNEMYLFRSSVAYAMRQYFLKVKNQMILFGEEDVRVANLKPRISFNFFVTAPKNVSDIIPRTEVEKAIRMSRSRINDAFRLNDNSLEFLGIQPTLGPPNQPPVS

With `CC(C)C[C@H](N[C@@H](Cn1ccn(Cc2cc(Cl)cc(Cl)c2)c1=O)C(=O)O)C(=O)O` [LF, (S,S) 2-{1-Carboxy-2-[3-(3,5-dichloro-benzyl)-2-oxo-2,3-dihydro-imidazol-1-yl]-ethylamino}-4-methyl-pentanoic acid], the Ki was below 0.1 µM under setting [1] and 0.05 to 0.1 µM under setting [2]. `CC(C)C[C@H](N[C@@H](Cn1ccn(Cc2cc(F)cc(F)c2)c1=O)C(=O)O)C(=O)O` [LG, 2-[1-Carboxy-2-[3-(3,5-difluoro-benzyl)-2-oxo-2,3-dihydro-imidazol-1-yl]-ethylamino]-4-methyl-pentanoic acid]: the Ki under setting [1] was below 0.1 µM and the Ki under setting [2] fell in the range of 0.05 to 0.1 µM. As to `CC(C)C[C@H](N[C@@H](Cn1ccn([C@@H](C)c2ccccc2)c1=O)C(=O)O)C(=O)O` [LH, (S,S)-2-{1-Carboxy-2-[2-oxo-3-(1-phenyl-ethyl)-2,3-dihydro-imidazol-1-yl]-ethylamino}-4-methyl-pentanoic acid], under setting [1], the Ki fell in the range of 0.1 to 0.5 µM. On the same count and under the same terms, with `CC(C)C[C@H](N[C@@H](CNC(=O)c1cccc(Cl)c1)C(=O)O)C(=O)O` [LI, (S,S)-2-[1-Carboxy-2-(3-chloro-benzoylamino)-ethylamino]-4-methyl-pentanoic acid] the figure was above 0.5 µM; with `CC(C)C[C@H](N[C@@H](CNC(=O)c1ccc(Cl)c(Cl)c1)C(=O)O)C(=O)O` [LJ, (S,S)-2-[1-Carboxy-2-(3,4-dichloro-benzoylamino)-ethylamino]-4-methyl-pentanoic acid], above 0.5 µM. Take `COC(=O)[C@H](Cc1cccc(O)c1)N[C@@H](CC(C)C)C(=O)OCc1ccccc1` [LK, 2-[2-(3-Hydroxy-phenyl)-1-methoxycarbonyl-ethylamino]-4-methyl-pentanoic acidbenzyl ester]: under setting [1], the Ki was above 0.5 µM. Same read-out and setting: with `COC(=O)[C@@H](Cc1cccc(O)c1)N[C@@H](CC(C)C)C(=O)OCc1ccccc1` [LL, 2-[2-(3-Hydroxy-phenyl)-1-methoxycarbonyl-ethylamino]-4-methyl-pentanoic acid benzylester] the figure was above 0.5 µM; with `CC(C)C[C@H](N[C@@H](Cc1coc(-c2ccccc2)n1)C(=O)O)C(=O)O` [LM, (S,S)-2-[1-Carboxy-2-(2-phenyl-oxazol-4-yl)ethylamino]-4-methyl-pentanoic acid], above 0.5 µM. Turning to `CC(C)C[C@H](N[C@@H](Cc1coc(-c2cc(Cl)cc(Cl)c2)n1)C(=O)O)C(=O)O` [LN, (S,S)-2-{1-Carboxy-2-[2-(3,5-dichlorophenyl)-oxazol-4-yl]ethylamino}-4-methyl-pentanoic acid], the Ki is, setting by setting: under setting [1], below 0.1 µM; under setting [2], 0.05 to 0.1 µM. Regarding `CC(C)C[C@H](N[C@@H](Cc1csc(-c2cc(Cl)cc(Cl)c2)n1)C(=O)O)C(=O)O` [LO, (S,S)-2-{1-Carboxy-2-[2-(3,5-dichlorophenyl)-thiazol-4-yl]-ethylamino}-4-methyl-pentanoic acid], under setting [1], the Ki was in the range of 0.1 to 0.5 µM.

In the case of `CC(C)C[C@H](N[C@@H](Cc1ccn(Cc2cc(Cl)cc(Cl)c2)n1)C(=O)O)C(=O)O` [LP, (S,S)-2-{1-carboxy-2-[1-(3,5-dichlorobenzyl)-1H-pyrazol-3-yl]-ethylamino}-4-methyl pentanoic acid], the Ki by setting is: under setting [1], below 0.1 µM; under setting [2], below 0.05 µM. For `CC(C)C[C@H](N[C@@H](Cc1cncn1Cc1cc(Cl)cc(Cl)c1)C(=O)OC1CCCC1)C(=O)O` [LQ, (S,S) 2-{1-Cyclopentyloxycarbonyl-2-[3-(3,5-dichloro-benzyl)-3H-imidazol-4-yl]-ethylamino}-4-methyl-pentanoic acid], under setting [1], the Ki was above 0.5 µM. For the molecule `CC(C)C[C@H](N[C@@H](CN1CCN(Cc2cc(F)cc(F)c2)C1=O)C(=O)O)C(=O)O` [LR, 2-[1-Carboxy-2-[3-(3,5-difluoro-benzyl)-2-oxo-imidazolidin-1-yl]-ethylamino]-4-methyl-pentanoic acid], the Ki under setting [1] lay within 0.1 to 0.5 µM. Take `CC(C)C[C@H](N[C@@H](Cn1ccn(Cc2ccccc2)c1=O)C(=O)O)C(=O)O` [LS, 2-[2-(3-Benzyl-2-oxo-2,3-dihydro-imidazol-1-yl)-1-carboxy-ethylamino]-4-methyl-pentanoic acid]: the Ki under setting [1] lay in the range of 0.1 to 0.5 µM. For `CC(C)C[C@H](N[C@@H](Cc1ccc(OCCc2ccccc2)cc1)C(=O)O)C(=O)O` [LT, 2-[1-Carboxy-2-(4-phenethyloxy-phenyl)-ethylamino]-4-methyl-pentanoic acid], the Ki under setting [1] fell in the range of 0.1 to 0.5 µM.

In the case of `CC(C)C[C@H](N[C@@H](Cc1ccc(OC(C)(C)C)cc1)C(=O)O)C(=O)O` [LU, 2-[2-(4-tert-Butoxy-phenyl)-1-carboxy-ethylamino]-4-methyl-pentanoic acid], the Ki under setting [1] is above 0.5 µM. For the molecule `CC(C)C[C@H](N[C@@H](Cc1ccc(OCc2ccncc2)cc1)C(=O)O)C(=O)O` [LV, 2-[1-Carboxy-2-[4-(pyridin4-ylmethoxy)-phenyl]-ethylamino]-4-methyl-pentanoic acid], the Ki is below 0.1 µM under setting [1] and 0.05 to 0.1 µM under setting [2]. On to `C=CCOc1ccc(C[C@H](N[C@@H](CC(C)C)C(=O)O)C(=O)O)cc1` [LW, 2-[2-(4-Allyloxy-phenyl)-1-carboxy-ethylamino]-4-methyl-pentanoic acid], for which the Ki runs as follows: under setting [1], below 0.1 µM; under setting [2], 0.05 to 0.1 µM. In the case of `CC(C)C[C@H](N[C@@H](Cc1ccc(OCc2cccnc2)cc1)C(=O)O)C(=O)O` [LX, S,S-2-{1-Carboxy-2-[4-(pyridin-3-ylmethoxy)-phenyl]-ethylamino}-4-methyl pentanoic acid], under setting [1], the Ki was 0.1 to 0.5 µM. In the case of `Cc1ccc(-c2cccc(C[C@H](N[C@@H](CC(C)C)C(=O)O)C(=O)O)c2)cc1` [LY, (S,S)-2-[1-Carboxy-2-(4′-methyl-biphenyl-3-yl)-ethylamino]-4-methyl-pentanoic acid], under setting [1], the Ki is above 0.5 µM. As to `COc1cccc(C(=O)NC[C@H](N[C@@H](CC(C)C)C(=O)O)C(=O)O)c1` [LZ, 2-[1-Carboxy-2-(3-methoxy-benzoylamino)-ethylamino]-4-methyl-pentanoic acid], the Ki under setting [1] is 0.1 to 0.5 µM. On to `C[C@@H](N[C@@H](CCCN)C(=O)O)C(=O)O` [M, 5-Amino-2-(1-carboxy-ethylamino)-pentanoicacid], for which the Ki (Ki class, compounds tested in 5% DMSO, 12 concentrations, read-out: Human ACE-2 Activity) was above 0.5 µM. As to `CC(C)C[C@H](N[C@@H](CC(=O)Nc1nc2ccc(Cl)cc2s1)C(=O)O)C(=O)O` [MB, (S,S)-2-[1-Carboxy-2-(6-chloro-benzothiazol-2-ylcarbamoyl)-ethylamino]-4-methyl-pentanoic acid], the Ki reads like this: under setting [1], below 0.1 µM; under setting [2], below 0.05 µM. As to `Cc1cc2nc(NC(=O)C[C@H](N[C@@H](CC(C)C)C(=O)O)C(=O)O)sc2cc1C` [MC, (S,S)-2-[1-Carboxy-2-(5,6-dimethyl-benzothiazol-2-ylcarbamoyl)-ethylamino]-4-methyl-pentanoic acid], the Ki under setting [1] was above 0.5 µM. On to `CC(C)C[C@H](N[C@@H](CC(=O)Nc1nc2c(Cl)cccc2s1)C(=O)O)C(=O)O` [MD, (S,S)-2-[1-Carboxy-2-(4-chloro-benzothiazol-2-ylcarbamoyl)-ethylamino]-4-methyl-pentanoic acid], for which the Ki runs as follows: under setting [1], below 0.1 µM; under setting [2], below 0.05 µM. On to `CC(C)C[C@H](N[C@@H](Cn1ccn(CCC2CCCCC2)c1=O)C(=O)O)C(=O)O` [ME, (S,S)-2-{1-Carboxy-2-[3-(2-cyclohexyl-ethyl)-2-oxo-2,3-dihydro-imidazol-1-yl]-ethylamino}-4-methyl-pentanoic acid], for which the Ki under setting [1] was 0.1 to 0.5 µM.
